Bounds are passed on as bounds.

The test system of one assay is Mosquito larvae. The assay can be described thus: Mosquito larval mortality bioassay. The assay is classed as in vivo. Particulars: mosquito larval mortality followed for three days in microtiter plates; compound dissolved in dimethylsulfoxide; Brewer's yeast. The protocol:
Mosquito larval mortality was followed for three days in microtiter plates containing 160 μL sterile water, 1-4 μL of the test compound dissolved in dimethylsulfoxide, and 10 μL of 2% Brewer's yeast. Controls were run under the same conditions without the test compounds. Larval mortality in the controls was 3% for 1-3 μL dimethylsulfoxide, and up to 20% for 4 μL dimethylsulfoxide.

The subject of another assay is Ornithodoros parkeri. Put plainly: Repellent assay for ticks. The assay is classed as in vivo. Particulars: ten ticks; for # ticks on acetone: control paper opposite the compound paper; for # ticks on compound: test paper saturated with 60 uL of 15 mg/ml test solution. The protocol: A repellent assay for ticks is carried out as follows: (1) Prepare 15 mg/ml test solution of test compound in 100% acetone in individual 500 uL bullet tubes. Prepare control solution (1 uL olive oil plus 100 uL 100 acetone). (2) prepare half circle test papers (radious =2.25 cm) from Whatman filter paper (# 2 qualitative). (3) Saturate test papers with 60 uL of 100% acetone, control, or test solution. Test papers are in individual sterile petri dishes during this process. (4) Allow test papers to air dry at room temperature for one hour. (5) Select and place ten ticks into separate sterile glass petri dishes. Allow ticks to acclimate to covered dishes for one hour. (6) Transfer one test paper treated with a test solution and one test paper treated with the control solution to each of separate sterile petri dish bottoms. On control included two test papers treated with acetone. A second control included two test papers treated with the control solution. (7) Place ten ticks in between the two test papers. Place the test arenas in a dark room at room temperature. (8) Record the location of ticks 15 minutes, 1 hour and 2 hours after being placed in the test arenas.

For `COc1ccc(CC/C=C/CCC(=O)O)cc1` [E-7-(4-Methoxyphenyl)hept-4-enoic acid], in the assay on Mosquito larvae, the “Activity (LD50)” value is reported as 1.28 mM.
Consider `CCOC(=O)CC/C=C/CCc1ccc(-c2ccccc2)cc1` [Compound 221, Ethyl E-7-((4-phenyl)phenyl)hept-4-enoate], for which the entries for the “# ticks on acetone” value in the assay with Ornithodoros parkeri (15 minutes), with Ornithodoros parkeri (1 hour) and in the assay on Ornithodoros parkeri (2 hours) were 5, 4 and 8, respectively. Moreover, the “# ticks on compound” value in the assay with Ornithodoros parkeri (15 minutes) is 5; in the assay with Ornithodoros parkeri (1 hour), 4; in the assay on Ornithodoros parkeri (2 hours), 2.
Consider `O=C(O)CC/C=C/CCC1CCCCC1` [Compound 172, E-7-(Cyclohexyl)hept-4-enoic Acid], for which the figures for the “# ticks on acetone” value with Ornithodoros parkeri (15 minutes), in the assay with Ornithodoros parkeri (1 hour) and in the assay on Ornithodoros parkeri (2 hours) were 8, 10 and 10, respectively. Moreover, the “# ticks on compound” value in the assay on Ornithodoros parkeri (15 minutes) stood at 2.
As to `CCOC(=O)CC/C=C/CCC1CCCCC1` [Compound 218, Ethyl E-7-(Cyclohexyl)hept-4-enoate], the “# ticks on acetone” value with Ornithodoros parkeri (15 minutes), with Ornithodoros parkeri (1 hour) and with Ornithodoros parkeri (2 hours) was 10 in each case.
Take `O=C(O)CCCCCCc1ccccc1` [7-Phenylheptanoic acid]: the “Activity (LD50)” value with Mosquito larvae amounted to 0.19 ± 0.02 mM.
Still for that read-out and setting: for `O=C(O)CC/C=C/CCc1ccccc1` [E-7-Phenylhept-4-enoic acid] the value was <0.08 mM; for `O=C(O)CC/C=C/CCc1ccc(O)cc1` [E-7-(4-Hydroxyphenyl)hept-4-enoic acid, E-7-(4-hydroxyphenyl)hept-4-enoic acid], 0.59 ± 0.03 mM.

The values above are taken from patent publication US6660770B2, “Pesticidal activity of functionalized alkenes” (North Carolina State University, priority 1999, dated 2003).
